Measured values published in publication PMC5025758 (Nature Communications, 2016).
pKd: −log10 of the molar value.

What was measured:
COX-2 = target: T1, COX-2 (Homo sapiens, UniProt P35354); assay: biochemical; design: off-target selectivity panel, enzyme and kinase inhibition, pXC50; conditions: read-out: pXC50 (enzyme inhibition) (converted)
T1 construct: gene PTGS2
Description: (§1) From the outset, GSK3011724A, an indazole sulfonamide (Fig. 1a), represented an attractive compound for early stage drug discovery based on its anti-mycobacterial potency, small size and moderate lipophilicity (Table 1). Further profiling in vitro using standard assays, such as the hERG ion channel and cytochrome P450 isoforms supported this view (Table 1). […] A description of this optimization effort along with a thorough discussion of the drug development potential and liabilities of this series will be the subject of a future publication.

PDE3A = PDE3A (Homo sapiens, UniProt Q14432); assay: biochemical; design: off-target selectivity panel, enzyme and kinase inhibition, pXC50; conditions: read-out: pXC50 (enzyme inhibition) (converted)
Description: as §1

Acetylcholinesterase = target: T2, Acetylcholinesterase (Homo sapiens, UniProt P22303); assay: biochemical; design: off-target selectivity panel, enzyme and kinase inhibition, pXC50; conditions: read-out: pXC50 (enzyme inhibition) (converted)
T2 construct: gene ACHE
Description: as §1

LCK = LCK (Homo sapiens, UniProt P06239); assay: biochemical; design: off-target selectivity panel, enzyme and kinase inhibition, pXC50; conditions: read-out: pXC50 (enzyme inhibition) (converted)
Description: as §1

PI3Kγ = target: T3, PI3Kγ (Homo sapiens, UniProt P48736); assay: biochemical; design: off-target selectivity panel, enzyme and kinase inhibition, pXC50; conditions: read-out: pXC50 (enzyme inhibition) (converted)
T3 construct: gene PIK3CG
Description: as §1

Pks11 = assay type: biochemical, Mycobacterium bovis BCG
hERG = target: T4, hERG (Homo sapiens, UniProt Q12809); assay: cell-based; design: off-target selectivity panel, receptor antagonist, channel blocker or transporter inhibition mode, pXC50; conditions: read-out: pXC50 (blocker / transporter inhibition) (converted)
T4 construct: gene KCNH2
Description: as §1

Dopamine D1 = target: T5, Dopamine D1 (Homo sapiens, UniProt P21728); assay: cell-based; design: off-target selectivity panel, receptor antagonist, channel blocker or transporter inhibition mode, pXC50; conditions: antagonist mode; read-out: pXC50 (antagonist) (converted)
T5 construct: gene DRD1
Description: as §1

KCNQ1/minK = target: T6, KCNQ1/minK (Homo sapiens, UniProt P15382+P51787); assay: cell-based; design: off-target selectivity panel, receptor antagonist, channel blocker or transporter inhibition mode, pXC50; conditions: read-out: pXC50 (blocker / transporter inhibition) (converted)
T6 construct: gene KCNE1
Description: as §1

Muscarine M1 = target: T7, Muscarine M1 (Homo sapiens, UniProt P11229); assay: cell-based; design: off-target selectivity panel, receptor antagonist, channel blocker or transporter inhibition mode, pXC50; conditions: antagonist mode; read-out: pXC50 (antagonist) (converted)
T7 construct: gene CHRM1
Description: as §1

NaV1.5 = target: T8, NaV1.5 (Homo sapiens, UniProt Q14524); assay: cell-based; design: off-target selectivity panel, receptor antagonist, channel blocker or transporter inhibition mode, pXC50; conditions: read-out: pXC50 (blocker / transporter inhibition) (converted)
T8 construct: gene SCN5A
Description: as §1

Serotonin 5HT2A = target: T9, Serotonin 5HT2A (Homo sapiens, UniProt P28223); assay: cell-based; design: off-target selectivity panel, receptor antagonist, channel blocker or transporter inhibition mode, pXC50; conditions: antagonist mode; read-out: pXC50 (antagonist) (converted)
T9 construct: gene HTR2A
Description: as §1

Histamine H1 = target: T10, Histamine H1 (Homo sapiens, UniProt P35367); assay: cell-based; design: off-target selectivity panel, receptor antagonist, channel blocker or transporter inhibition mode, pXC50; conditions: antagonist mode; read-out: pXC50 (antagonist) (converted)
T10 construct: gene HRH1
Description: as §1

Adrenergic β2 = target: T11, Adrenergic β2 (Homo sapiens, UniProt P07550); assay: cell-based; design: off-target selectivity panel, receptor antagonist, channel blocker or transporter inhibition mode, pXC50; conditions: antagonist mode; read-out: pXC50 (antagonist) (converted)
T11 construct: gene ADRB2
Description: as §1

Neurokinin NK1 = target: T12, Neurokinin NK1 (Homo sapiens, UniProt P25103); assay: cell-based; design: off-target selectivity panel, receptor antagonist, channel blocker or transporter inhibition mode, pXC50; conditions: antagonist mode; read-out: pXC50 (antagonist) (converted)
T12 construct: gene TACR1
Description: as §1

Vasopressin V1a = target: T13, Vasopressin V1a (Homo sapiens, UniProt P37288); assay: cell-based; design: off-target selectivity panel, receptor antagonist, channel blocker or transporter inhibition mode, pXC50; conditions: antagonist mode; read-out: pXC50 (antagonist) (converted)
T13 construct: gene AVPR1A
Description: as §1

Muscarine M2 = target: T14, Muscarine M2 (Homo sapiens, UniProt P08172); assay: cell-based; design: off-target selectivity panel, receptor antagonist, channel blocker or transporter inhibition mode, pXC50; conditions: antagonist mode; read-out: pXC50 (antagonist) (converted)
T14 construct: gene CHRM2
Description: as §1

OATP1B1 = target: T15, OATP1B1 (Homo sapiens, UniProt Q9Y6L6); assay: cell-based; design: off-target selectivity panel, receptor antagonist, channel blocker or transporter inhibition mode, pXC50; conditions: read-out: pXC50 (blocker / transporter inhibition) (converted)
T15 construct: gene SLCO1B1
Description: as §1

[1] = target: T16, L-type Ca channel (CaV1.2) (Homo sapiens, UniProt Q13936); assay: cell-based; design: off-target selectivity panel, receptor antagonist, channel blocker or transporter inhibition mode, pXC50; conditions: read-out: pXC50 (blocker / transporter inhibition) (converted)
T16 construct: gene CACNA1C
Description: as §1

α1 nicotinic AChR = target: T17, α1 nicotinic AChR (Homo sapiens, UniProt P02708); assay: cell-based; design: off-target selectivity panel, receptor antagonist, channel blocker or transporter inhibition mode, pXC50; conditions: read-out: pXC50 (blocker / transporter inhibition) (converted)
T17 construct: gene CHRNA1
Description: as §1

Dopamine D2 = target: T18, Dopamine D2 (Homo sapiens, UniProt P14416); assay: cell-based; design: off-target selectivity panel, receptor antagonist, channel blocker or transporter inhibition mode, pXC50; conditions: antagonist mode; read-out: pXC50 (antagonist) (converted)
T18 construct: gene DRD2
Description: as §1

Serotonin 5HT2C = target: T19, Serotonin 5HT2C (Homo sapiens, UniProt P28335); assay: cell-based; design: off-target selectivity panel, receptor antagonist, channel blocker or transporter inhibition mode, pXC50; conditions: antagonist mode; read-out: pXC50 (antagonist) (converted)
T19 construct: gene HTR2C
Description: as §1

Adrenergic α1B = target: T20, Adrenergic α1B (Homo sapiens, UniProt P35368); assay: cell-based; design: off-target selectivity panel, receptor antagonist, channel blocker or transporter inhibition mode, pXC50; conditions: antagonist mode; read-out: pXC50 (antagonist) (converted)
T20 construct: gene ADRA1B
Description: as §1

T7 sequence (P11229 whole entry): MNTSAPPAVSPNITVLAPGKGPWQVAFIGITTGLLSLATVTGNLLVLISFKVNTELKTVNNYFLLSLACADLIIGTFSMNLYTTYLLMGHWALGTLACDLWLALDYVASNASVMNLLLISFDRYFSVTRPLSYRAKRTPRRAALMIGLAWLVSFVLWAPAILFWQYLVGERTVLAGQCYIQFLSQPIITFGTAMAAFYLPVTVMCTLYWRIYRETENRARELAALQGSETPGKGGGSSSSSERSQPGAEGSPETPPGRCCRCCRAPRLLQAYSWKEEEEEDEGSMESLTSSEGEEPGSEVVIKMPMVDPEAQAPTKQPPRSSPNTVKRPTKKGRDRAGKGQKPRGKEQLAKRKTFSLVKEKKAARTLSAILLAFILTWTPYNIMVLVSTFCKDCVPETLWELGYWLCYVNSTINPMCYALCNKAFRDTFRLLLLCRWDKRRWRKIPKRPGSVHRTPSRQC
T15 sequence (Q9Y6L6 whole entry): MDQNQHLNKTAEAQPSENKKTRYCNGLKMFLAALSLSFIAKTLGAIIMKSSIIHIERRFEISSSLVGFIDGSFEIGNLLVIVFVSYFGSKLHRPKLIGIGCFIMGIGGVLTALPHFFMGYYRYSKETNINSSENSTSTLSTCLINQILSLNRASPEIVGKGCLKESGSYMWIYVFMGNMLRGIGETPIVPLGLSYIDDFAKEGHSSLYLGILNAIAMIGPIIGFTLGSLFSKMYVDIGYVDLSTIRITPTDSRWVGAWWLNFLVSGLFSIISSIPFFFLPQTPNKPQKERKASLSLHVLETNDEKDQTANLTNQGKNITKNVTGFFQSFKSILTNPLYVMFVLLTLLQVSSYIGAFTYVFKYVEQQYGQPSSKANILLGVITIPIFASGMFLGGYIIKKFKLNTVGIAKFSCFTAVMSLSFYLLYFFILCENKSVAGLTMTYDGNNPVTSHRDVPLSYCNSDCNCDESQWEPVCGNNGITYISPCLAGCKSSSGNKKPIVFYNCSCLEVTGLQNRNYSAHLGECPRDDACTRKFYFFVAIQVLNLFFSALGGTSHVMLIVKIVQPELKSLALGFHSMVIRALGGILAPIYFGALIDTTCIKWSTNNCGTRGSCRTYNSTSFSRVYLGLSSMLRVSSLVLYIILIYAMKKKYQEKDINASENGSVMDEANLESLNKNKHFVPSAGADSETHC
T20 sequence (P35368 whole entry): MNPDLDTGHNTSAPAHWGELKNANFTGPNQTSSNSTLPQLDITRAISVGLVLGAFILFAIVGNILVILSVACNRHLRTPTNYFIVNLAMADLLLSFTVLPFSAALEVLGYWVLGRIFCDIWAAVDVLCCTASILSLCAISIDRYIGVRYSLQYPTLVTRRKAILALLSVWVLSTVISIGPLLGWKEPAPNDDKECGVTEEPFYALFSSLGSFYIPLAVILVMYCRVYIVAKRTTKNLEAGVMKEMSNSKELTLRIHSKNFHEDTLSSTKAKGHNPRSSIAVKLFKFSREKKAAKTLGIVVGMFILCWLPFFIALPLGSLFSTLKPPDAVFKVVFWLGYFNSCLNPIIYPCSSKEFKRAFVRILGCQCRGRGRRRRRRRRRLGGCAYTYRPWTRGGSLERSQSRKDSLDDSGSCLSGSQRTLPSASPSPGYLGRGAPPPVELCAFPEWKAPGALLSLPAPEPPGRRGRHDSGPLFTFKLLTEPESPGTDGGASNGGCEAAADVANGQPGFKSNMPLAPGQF
PDE3A, sequence (Q14432 whole entry): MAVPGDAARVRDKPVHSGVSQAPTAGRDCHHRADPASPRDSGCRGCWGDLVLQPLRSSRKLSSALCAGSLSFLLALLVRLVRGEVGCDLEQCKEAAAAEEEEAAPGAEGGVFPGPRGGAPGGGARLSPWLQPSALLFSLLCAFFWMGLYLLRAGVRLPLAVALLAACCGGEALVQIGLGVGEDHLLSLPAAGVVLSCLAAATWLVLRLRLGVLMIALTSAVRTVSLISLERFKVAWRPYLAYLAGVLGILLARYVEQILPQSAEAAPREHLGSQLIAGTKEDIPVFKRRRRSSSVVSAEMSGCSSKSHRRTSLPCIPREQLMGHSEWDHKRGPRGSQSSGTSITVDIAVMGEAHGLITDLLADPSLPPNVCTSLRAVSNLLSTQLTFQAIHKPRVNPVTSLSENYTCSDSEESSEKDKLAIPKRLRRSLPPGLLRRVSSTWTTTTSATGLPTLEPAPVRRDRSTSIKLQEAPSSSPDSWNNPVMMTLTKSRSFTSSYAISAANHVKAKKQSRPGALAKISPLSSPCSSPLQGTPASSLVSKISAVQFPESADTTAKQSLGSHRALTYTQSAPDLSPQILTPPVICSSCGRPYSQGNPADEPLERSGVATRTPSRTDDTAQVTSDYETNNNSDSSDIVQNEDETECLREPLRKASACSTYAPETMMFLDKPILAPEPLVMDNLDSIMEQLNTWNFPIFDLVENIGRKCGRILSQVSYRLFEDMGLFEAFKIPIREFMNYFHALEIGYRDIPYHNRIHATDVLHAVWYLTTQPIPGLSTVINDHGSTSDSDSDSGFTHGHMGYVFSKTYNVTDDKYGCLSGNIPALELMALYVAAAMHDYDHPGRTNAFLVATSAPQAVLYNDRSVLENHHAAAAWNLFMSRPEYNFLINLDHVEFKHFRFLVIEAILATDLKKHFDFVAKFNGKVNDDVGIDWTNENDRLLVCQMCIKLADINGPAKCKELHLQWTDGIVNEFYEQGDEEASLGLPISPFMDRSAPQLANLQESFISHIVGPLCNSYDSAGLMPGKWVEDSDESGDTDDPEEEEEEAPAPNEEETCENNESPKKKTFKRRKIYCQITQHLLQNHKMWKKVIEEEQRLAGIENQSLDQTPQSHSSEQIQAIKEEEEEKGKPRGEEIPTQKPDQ
T14 sequence (P08172 whole entry): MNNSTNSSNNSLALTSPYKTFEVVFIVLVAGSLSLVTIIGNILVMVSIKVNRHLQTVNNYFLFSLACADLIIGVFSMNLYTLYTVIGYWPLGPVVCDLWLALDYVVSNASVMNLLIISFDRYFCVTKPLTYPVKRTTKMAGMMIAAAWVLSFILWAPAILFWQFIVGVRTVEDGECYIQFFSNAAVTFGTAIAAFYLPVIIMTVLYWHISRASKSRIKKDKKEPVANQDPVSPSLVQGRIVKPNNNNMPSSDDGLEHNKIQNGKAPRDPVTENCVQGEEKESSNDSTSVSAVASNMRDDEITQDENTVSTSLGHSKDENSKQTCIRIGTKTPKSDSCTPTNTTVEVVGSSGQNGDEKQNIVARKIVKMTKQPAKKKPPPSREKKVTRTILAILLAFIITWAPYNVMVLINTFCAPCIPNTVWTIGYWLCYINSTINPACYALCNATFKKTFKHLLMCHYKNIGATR
T17 sequence (P02708 whole entry): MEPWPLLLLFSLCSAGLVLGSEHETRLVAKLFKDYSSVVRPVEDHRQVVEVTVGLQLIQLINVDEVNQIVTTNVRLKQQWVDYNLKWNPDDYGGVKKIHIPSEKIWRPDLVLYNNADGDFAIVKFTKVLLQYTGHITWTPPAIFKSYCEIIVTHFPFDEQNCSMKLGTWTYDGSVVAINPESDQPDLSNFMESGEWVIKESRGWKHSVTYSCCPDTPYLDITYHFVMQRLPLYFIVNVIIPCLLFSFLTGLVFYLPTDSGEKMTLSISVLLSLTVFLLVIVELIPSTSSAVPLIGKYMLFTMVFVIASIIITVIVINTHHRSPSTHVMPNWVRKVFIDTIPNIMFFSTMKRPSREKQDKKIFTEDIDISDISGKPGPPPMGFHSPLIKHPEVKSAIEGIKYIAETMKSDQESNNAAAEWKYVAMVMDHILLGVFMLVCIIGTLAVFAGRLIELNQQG
T18 sequence (P14416 whole entry): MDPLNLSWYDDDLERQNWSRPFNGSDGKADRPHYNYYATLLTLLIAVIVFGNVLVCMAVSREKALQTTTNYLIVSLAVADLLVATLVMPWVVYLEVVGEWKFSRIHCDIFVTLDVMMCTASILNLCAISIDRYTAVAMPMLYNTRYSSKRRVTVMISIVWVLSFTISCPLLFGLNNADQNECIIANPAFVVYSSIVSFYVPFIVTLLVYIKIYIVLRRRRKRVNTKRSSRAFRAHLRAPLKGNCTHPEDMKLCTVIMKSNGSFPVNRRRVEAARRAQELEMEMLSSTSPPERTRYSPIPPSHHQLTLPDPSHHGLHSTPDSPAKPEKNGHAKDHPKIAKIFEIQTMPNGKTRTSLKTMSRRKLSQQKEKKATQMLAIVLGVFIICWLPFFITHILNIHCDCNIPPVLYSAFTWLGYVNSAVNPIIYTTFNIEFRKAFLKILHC
T1 sequence (P35354 whole entry): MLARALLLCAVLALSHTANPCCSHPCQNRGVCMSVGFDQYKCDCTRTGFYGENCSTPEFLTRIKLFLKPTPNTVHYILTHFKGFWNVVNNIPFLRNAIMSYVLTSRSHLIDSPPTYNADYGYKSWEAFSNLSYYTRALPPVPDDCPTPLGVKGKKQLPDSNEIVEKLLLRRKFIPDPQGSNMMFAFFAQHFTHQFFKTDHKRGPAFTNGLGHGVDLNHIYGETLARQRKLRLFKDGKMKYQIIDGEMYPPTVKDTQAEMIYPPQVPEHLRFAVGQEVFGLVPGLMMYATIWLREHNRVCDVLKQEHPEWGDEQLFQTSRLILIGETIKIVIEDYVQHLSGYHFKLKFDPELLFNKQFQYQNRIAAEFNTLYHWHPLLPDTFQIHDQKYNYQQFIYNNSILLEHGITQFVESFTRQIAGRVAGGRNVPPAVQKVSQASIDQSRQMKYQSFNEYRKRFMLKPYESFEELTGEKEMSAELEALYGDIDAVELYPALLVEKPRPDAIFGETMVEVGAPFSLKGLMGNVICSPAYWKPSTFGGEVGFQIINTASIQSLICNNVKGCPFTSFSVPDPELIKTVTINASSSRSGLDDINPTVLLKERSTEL

With `CCCCS(=O)(=O)Nc1ccc2cnn(C)c2c1` [GSK3011724A] the IC50 (COX-2) was > 100 µM, the IC50 (PDE3A) was > 100 µM and the IC50 (Acetylcholinesterase) was > 100 µM. The IC50 (LCK) was > 31.6 µM, the IC50 (PI3Kγ) was > 31.6 µM and the pKd (Pks11) was 5.85. The IC50 (hERG) was > 63.1 µM, the IC50 (Dopamine D1) was > 100 µM and the IC50 (KCNQ1/minK) was > 25.1 µM. For the same compound, the IC50 (Muscarine M1) was > 50.1 µM, the IC50 (NaV1.5) was > 100 µM and the IC50 (Serotonin 5HT2A) was > 25.1 µM. The IC50 (Histamine H1) was > 25.1 µM, the IC50 (Adrenergic β2) was > 100 µM and the IC50 (Neurokinin NK1) was > 25.1 µM. The IC50 (Vasopressin V1a) was > 50.1 µM, the IC50 (Muscarine M2) was > 50.1 µM and the IC50 (OATP1B1) was > 50.1 µM. The IC50 [1] was > 100 µM, the IC50 (α1 nicotinic AChR) was > 50.1 µM and the IC50 (Dopamine D2) was > 100 µM. The IC50 (Serotonin 5HT2C) was > 25.1 µM and the IC50 (Adrenergic α1B) was > 25.1 µM.
